This is an account of results in ChEMBL document CHEMBL1145661, “Studies on Aristolochia, I. Conversion of Aristolochic Acid-I to Aristolic Acid-One-Step Removal of a Nitro Group” (1983).

In assay [1] the test system is Oryctolagus cuniculus. Nature of the assay: Regulation of fertility in rabbit assessed as fetal loss 90 mg/kg. Format: functional.
Assay [2] has as its system Oryctolagus cuniculus. Kind of assay: Regulation of fertility in rabbit assessed as fetal loss 60 mg/kg. Format: functional.

Each structure is given as a SMILES string.

Turning to `COc1cccc2c1ccc1c(C(=O)O)cc3c(c12)OCO3` [ARISTOLIC ACID], the Activity with Oryctolagus cuniculus [1] and in the assay on Oryctolagus cuniculus [2] was 80% in each case.
